Tested on: diarrhea-predominant IBS subjects
Assay: 3007 Study: open-label 52-week safety study, adverse events and withdrawals
Settings: Cilansetron 2 mg/Cilansetron 2 mg

Cc1nccn1C[C@H]1CCc2c(c3cccc4c3n2CCC4)C1=O [cilansetron, (R)-(−)-4,5,6,8,9,10-hexahydro-10-[(2-methyl-1H-imidazol-1-yl)methyl]-11H-pyrido-[3,2,1-jk]-carbazol-11-one]
TEAE: Infections and Infestations: 106 (41%) n (%) | TEAE: Influenza: 11 (4%) n (%) | TEAE: Influenza Viral Infections: 11 (4%) n (%) | TEAE: Inguinal Hernia NOS: 0 n (%) | TEAE: Inguinal Hernias: 0 n (%) | TEAE: Injury, Poisoning and Procedural Complications: 26 (10%) n (%) | TEAE: Intervertebral Disc Degeneration NOS: 2 (<1%) n (%) | TEAE: Intervertebral Disc Disorder NOS: 1 (<1%) n (%) | TEAE: Intervertebral Disc Disorders NEC: 5 (2%) n (%) | TEAE: Intervertebral Disc Herniation: 4 (2%) n (%) | TEAE: Intestinal Haemorrhages: 4 (2%) n (%) | TEAE: Intraocular Pressure Increased: 1 (<1%) n (%) | TEAE: Investigations: 77 (30%) n (%) | TEAE: Irritable Bowel Syndrome: 1 (<1%) n (%) | TEAE: Irritable Bowel Syndrome Aggravated: 3 (1%) n (%) | TEAE: Joint Related Disorders NEC: 1 (<1%) n (%) | TEAE: Joint Related Signs and Symptoms: 11 (4%) n (%) | TEAE: Joint Sprain: 1 (<1%) n (%) | TEAE: Joint Swelling: 1 (<1%) n (%) | TEAE: Kidney Infection NOS: 0 n (%) | TEAE: Laceration: 3 (1%) n (%) | TEAE: Ligament Sprain: 1 (<1%) n (%) | TEAE: Limb Discomfort NOS: 0 n (%) | TEAE: Limb Injuries NEC (Incl Traumatic Amputation): 1 (<1%) n (%) | TEAE: Limb Injury NOS: 2 (<1%) n (%) | TEAE: Lip and Palate Disorders NEC: 0 n (%) | TEAE: Liver Function Analyses: 12 (5%) n (%) | TEAE: Liver Function Tests NOS Abnormal: 0 n (%) | TEAE: Localised Infection: 1 (<1%) n (%) | TEAE: Localised Osteoarthritis: 1 (<1%) n (%) | TEAE: Loss of Consciousness: 1 (<1%) n (%) | TEAE: Lower Limb Fracture NOS: 0 n (%) | TEAE: Lower Limb Fractures and Dislocations: 1 (<1%) n (%) | TEAE: Lower Respiratory Tract and Lung Infections: 21 (8%) n (%) | TEAE: Lymphocyte Count Increased: 2 (<1%) n (%) | TEAE: Memory Loss (Excl Dementia): 1 (<1%) n (%) | TEAE: Metabolic Bone Disorders: 2 (<1%) n (%) | TEAE: Metabolism Tests NEC: 4 (2%) n (%) | TEAE: Migraine Headaches: 5 (2%) n (%) | TEAE: Migraine NOS: 5 (2%) n (%) | TEAE: Mineral and Electrolyte Analyses: 2 (<1%) n (%) | TEAE: Monoarthritis: 1 (<1%) n (%) | TEAE: Monocyte Count Decreased: 1 (<1%) n (%) | TEAE: Monocyte Count Increased: 2 (<1%) n (%) | TEAE: Mononeuropathies: 2 (<1%) n (%) | TEAE: Movement Disorder NOS: 0 n (%) | TEAE: Muscle Cramps: 8 (3%) n (%) | TEAE: Muscle Infections and Inflammations: 0 n (%) | TEAE: Muscle Pains: 2 (<1%) n (%) | TEAE: Muscle Related Signs and Symptoms NEC: 9 (4%) n (%) | TEAE: Muscle Spasms: 1 (<1%) n (%) | TEAE: Muscle Strain: 5 (2%) n (%) | TEAE: Muscle Tone Abnormalities: 1 (<1%) n (%) | TEAE: Muscle, Tendon and Ligament Injuries: 6 (2%) n (%) | TEAE: Musculoskeletal Chest Pain: 1 (<1%) n (%) | TEAE: Musculoskeletal and Connective Tissue Disorders: 56 (22%) n (%) | TEAE: Musculoskeletal and Connective Tissue Signs and Symptoms NEC: 19 (7%) n (%) | TEAE: Musculoskeletal and Soft Tissue Imaging Procedures: 0 n (%) | TEAE: Myalgia: 1 (<1%) n (%) | TEAE: Myasthenia Gravis: 0 n (%) | TEAE: Mycoplasma Infections: 1 (<1%) n (%) | TEAE: Myeloradiculopathy: 0 n (%) | TEAE: Myositis: 0 n (%) | TEAE: Nail Fungal Infection NOS: 0 n (%) | TEAE: Nail Infection NOS: 1 (<1%) n (%) | TEAE: Nasopharyngitis: 18 (7%) n (%) | TEAE: Nausea: 15 (6%) n (%) | TEAE: Nausea and Vomiting Symptoms: 19 (7%) n (%) | TEAE: Neck Pain: 1 (<1%) n (%) | TEAE: Nervous System Disorders: 41 (16%) n (%) | TEAE: Neurological Signs and Symptoms NEC: 4 (2%) n (%) | TEAE: Neuromuscular Junction Dysfunction: 0 n (%) | TEAE: Neutrophil Count Decreased: 3 (1%) n (%) | TEAE: Night Cramps: 1 (<1%) n (%) | TEAE: Nitrite Urine Present: 1 (<1%) n (%) | TEAE: Non-Accidental Overdose: 1 (<1%) n (%) | TEAE: Non-Site Specific Injuries NEC: 5 (2%) n (%) | TEAE: Non-Site Specific Procedural Complications: 3 (1%) n (%) | TEAE: Ophthalmic Function Diagnostic Procedures: 1 (<1%) n (%) | TEAE: Oral Dryness and Saliva Altered: 1 (<1%) n (%) | TEAE: Osteoarthritis Aggravated: 3 (1%) n (%) | TEAE: Osteoarthropathies: 4 (2%) n (%) | TEAE: Osteopenia: 0 n (%) | TEAE: Osteoporosis NOS: 2 (<1%) n (%) | TEAE: Otitis Media NOS: 0 n (%) | TEAE: Overdoses: 1 (<1%) n (%) | TEAE: Pain in Limb: 2 (<1%) n (%) | TEAE: Paraesthesias and Dysaesthesias: 1 (<1%) n (%) | TEAE: Parkinson's Disease NOS: 1 (<1%) n (%) | TEAE: Parkinson's Disease and Parkinsonism: 1 (<1%) n (%) | TEAE: Periorbital Haematoma: 1 (<1%) n (%) | TEAE: Peripheral Swelling: 1 (<1%) n (%) | TEAE: Pharyngitis Streptococcal: 4 (2%) n (%) | TEAE: Physical Examination Procedures: 8 (3%) n (%) | TEAE: Plantar Fasciitis: 2 (<1%) n (%) | TEAE: Pneumonia Mycoplasmal: 1 (<1%) n (%) | TEAE: Pneumonia NOS: 1 (<1%) n (%) | TEAE: Popliteal Bursitis: 0 n (%) | TEAE: Post Procedural Discomfort: 1 (<1%) n (%) | TEAE: Post Procedural Pain: 2 (<1%) n (%) | TEAE: Proctalgia: 0 n (%) | TEAE: Protein Urine Present: 2 (<1%) n (%) | TEAE: Pruritus Ani: 0 n (%) | TEAE: Rectal Cramps: 1 (<1%) n (%) | TEAE: Rectal Disorder NOS: 0 n (%) | TEAE: Rectal Haemorrhage: 4 (2%) n (%) | TEAE: Rectal Tenesmus: 0 n (%) | TEAE: Red Blood Cell Analyses: 1 (<1%) n (%) | TEAE: Red Blood Cells Urine: 0 n (%) | TEAE: Renal Bruit: 0 n (%) | TEAE: Renal Function Analyses: 1 (<1%) n (%) | TEAE: Reproductive Organ and Breast Histopathology Procedures: 1 (<1%) n (%) | TEAE: Respiratory Tract Infection NOS: 1 (<1%) n (%) | TEAE: Rheumatoid Arthritis: 0 n (%) | TEAE: Rheumatoid Arthritis Aggravated: 0 n (%) | TEAE: Rheumatoid Arthropathies: 0 n (%) | TEAE: Rhinoviral Infections: 18 (7%) n (%) | TEAE: Rib Fracture: 1 (<1%) n (%) | TEAE: Road Traffic Accident: 1 (<1%) n (%) | TEAE: Rotator Cuff Syndrome: 0 n (%) | TEAE: Seizures and Seizure Disorders NEC: 1 (<1%) n (%) | TEAE: Sinus Headache: 3 (1%) n (%) | TEAE: Sinusitis Acute NOS: 0 n (%) | TEAE: Sinusitis NOS: 24 (9%) n (%) | TEAE: Site Specific Injuries NEC: 6 (2%) n (%) | TEAE: Skeletal and Cardiac Muscle Analyses: 19 (7%) n (%) | TEAE: Skin Fungal Infection NOS: 1 (<1%) n (%) | TEAE: Skin Infection NOS: 0 n (%) | TEAE: Skin Structures and Soft Tissue Infections: 1 (<1%) n (%) | TEAE: Sleep Apnoea Syndrome: 0 n (%) | TEAE: Sleep Apnoeas: 0 n (%) | TEAE: Soft Tissue Disorders NEC: 2 (<1%) n (%) | TEAE: Somnolence: 1 (<1%) n (%) | TEAE: Speech and Language Abnormalities: 0 n (%) | TEAE: Spinal Cord and Nerve Root Disorders NEC: 0 n (%) | TEAE: Spondylitic Myelopathy: 0 n (%) | TEAE: Spondyloarthropathies: 1 (<1%) n (%) | TEAE: Spondylosis: 1 (<1%) n (%) | TEAE: Staphylococcal Infection NOS: 1 (<1%) n (%) | TEAE: Staphylococcal Infections: 1 (<1%) n (%) | TEAE: Status Epilepticus: 1 (<1%) n (%) | TEAE: Stomach Discomfort: 0 n (%) | TEAE: Streptococcal Infection NOS: 1 (<1%) n (%) | TEAE: Streptococcal Infections: 5 (2%) n (%) | TEAE: Stress Fracture: 1 (<1%) n (%) | TEAE: Temporomandibular Joint Disorder NOS: 1 (<1%) n (%) | TEAE: Tendon Disorders: 0 n (%) | TEAE: Tendonitis: 0 n (%) | TEAE: Tension Headaches: 1 (<1%) n (%) | TEAE: Thoracic Cage Fractures and Dislocations: 1 (<1%) n (%) | TEAE: Tinea Cruris: 0 n (%) | TEAE: Tinea Infections: 1 (<1%) n (%) | TEAE: Tinea Pedis: 1 (<1%) n (%) | TEAE: Tissue Enzyme Analyses NEC: 2 (<1%) n (%) | TEAE: Tongue Coated: 1 (<1%) n (%) | TEAE: Tongue Signs and Symptoms: 1 (<1%) n (%) | TEAE: Tooth Abscess: 6 (2%) n (%) | TEAE: Tooth Disorder NOS: 1 (<1%) n (%) | TEAE: Tooth Impacted: 1 (<1%) n (%) | TEAE: Tooth Infection: 1 (<1%) n (%) | TEAE: Toothache: 2 (<1%) n (%) | TEAE: Total Number of Subjects with at Least One TEAE: 220 (86%) n (%) | TEAE: Transient Global Amnesia: 1 (<1%) n (%) | TEAE: Tremor: 1 (<1%) n (%) | TEAE: Tremor (Excl Congenital): 1 (<1%) n (%) | TEAE: Trigger Finger: 0 n (%) | TEAE: Triglyceride Analyses: 6 (2%) n (%) | TEAE: Umbilical Hernia NOS: 1 (<1%) n (%) | TEAE: Umbilical Hernias: 1 (<1%) n (%)

Source: patent US20070093520A1, “Method of treatment of diarrhea-predominant irritable bowel syndrome in a subject” (priority 2005, published 2007)
